Patent US12606561B2, “Substituted pyrazolo[1,5-a][1,3,5]triazines as CDK inhibitors” (QURIENT CO., LTD., priority 2018, dated 2026)

Legend:
CDK1/Cyclin B = biological target: T1, CDK1/Cyclin B (Homo sapiens, UniProt P06493); assay: Enzymatic assay for CDK1 (LANCE Ultra kinase assay, FRET based); format: biochemical; conditions: ATP at Km; read-out: CDK1 enzymatic activity IC50
T1 construct: purchased Invitrogen PR4768C
Summary of the method: (§1)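 Inhibition of purified CDK/cyclin complexes was measured with ATP at its Km, using a ULight-labeled peptide substrate. Substrate phosphorylation was detected by FRET with a Europium-labeled anti-phospho-antibody.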

CDK7/Cyclin H/MNAT1 = biological target: T2, CDK7/Cyclin H/MNAT1 (Homo sapiens, UniProt P50613); assay: Enzymatic assay for CDK7 (LANCE Ultra kinase assay, FRET based); format: biochemical; conditions: for IC50: ATP at Km
T2 construct: purchased Invitrogen PR6749B
T2 sequence (P50613 whole entry): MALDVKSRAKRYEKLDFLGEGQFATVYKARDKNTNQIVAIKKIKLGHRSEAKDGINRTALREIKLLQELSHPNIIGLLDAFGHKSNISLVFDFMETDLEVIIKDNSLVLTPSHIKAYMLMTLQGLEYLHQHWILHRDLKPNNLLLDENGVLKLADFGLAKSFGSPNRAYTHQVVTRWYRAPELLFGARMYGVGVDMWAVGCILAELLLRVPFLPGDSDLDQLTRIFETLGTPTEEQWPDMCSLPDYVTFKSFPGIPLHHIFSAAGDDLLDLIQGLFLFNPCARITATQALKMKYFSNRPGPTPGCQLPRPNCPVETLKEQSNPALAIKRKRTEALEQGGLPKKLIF
T2 sequence (P51946 whole entry partner): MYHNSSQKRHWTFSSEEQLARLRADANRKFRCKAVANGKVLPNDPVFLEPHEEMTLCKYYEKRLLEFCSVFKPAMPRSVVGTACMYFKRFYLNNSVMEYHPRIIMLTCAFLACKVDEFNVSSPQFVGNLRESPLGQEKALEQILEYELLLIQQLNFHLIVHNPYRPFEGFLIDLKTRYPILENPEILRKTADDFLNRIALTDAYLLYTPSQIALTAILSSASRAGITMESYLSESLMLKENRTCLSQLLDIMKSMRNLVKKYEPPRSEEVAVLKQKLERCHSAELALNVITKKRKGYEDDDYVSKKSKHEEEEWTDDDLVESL
T2 sequence (P51948 whole entry partner): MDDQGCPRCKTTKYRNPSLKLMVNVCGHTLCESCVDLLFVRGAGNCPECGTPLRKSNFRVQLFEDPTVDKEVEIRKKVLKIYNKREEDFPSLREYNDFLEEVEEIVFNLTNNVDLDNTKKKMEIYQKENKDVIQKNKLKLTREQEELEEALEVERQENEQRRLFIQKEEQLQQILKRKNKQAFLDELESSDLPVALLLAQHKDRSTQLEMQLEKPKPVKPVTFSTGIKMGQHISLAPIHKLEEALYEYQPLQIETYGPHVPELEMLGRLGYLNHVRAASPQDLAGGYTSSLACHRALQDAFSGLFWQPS
Summary of the method: as §1

CDK5/p25 = biological target: T3, CDK5/p25 (Homo sapiens, UniProt Q00535); assay: Enzymatic assay for CDK5 (LANCE Ultra kinase assay, FRET based); format: biochemical; conditions: ATP at Km
T3 construct: purchased Invitrogen PR8543B
T3 sequence (Q00535 whole entry): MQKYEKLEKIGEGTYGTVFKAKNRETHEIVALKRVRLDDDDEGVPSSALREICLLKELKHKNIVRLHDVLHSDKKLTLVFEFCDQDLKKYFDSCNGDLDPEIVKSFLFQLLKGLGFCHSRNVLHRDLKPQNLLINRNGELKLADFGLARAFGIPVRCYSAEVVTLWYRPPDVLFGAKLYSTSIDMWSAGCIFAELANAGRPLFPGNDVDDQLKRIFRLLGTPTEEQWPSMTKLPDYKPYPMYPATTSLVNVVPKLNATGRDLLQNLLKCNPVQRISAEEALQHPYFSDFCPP
T3 sequence (Q15078 99-307 partner limits assumed): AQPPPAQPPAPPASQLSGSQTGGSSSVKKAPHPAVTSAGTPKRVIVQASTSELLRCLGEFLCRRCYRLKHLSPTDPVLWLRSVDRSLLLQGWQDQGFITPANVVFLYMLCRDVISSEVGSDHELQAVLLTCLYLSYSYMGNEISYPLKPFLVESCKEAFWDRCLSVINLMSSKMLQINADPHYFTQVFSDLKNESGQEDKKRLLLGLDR
Summary of the method: (§2)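 Inhibition was measured at ATP Km with 68 nM ULight-MBP peptide and CDK2/Cyclin A ([…]) or CDK5/p25 ([…]), using 8-dose 4-fold compound dilutions from DMSO. Kinase reaction ran 60 min at 23° C, then Eu anti-phospho-MBP plus EDTA were added for another 60 min before the fluorescence read.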

OVCAR-3 = OVCAR-3 viability assay (CellTiter-Glo, 72 hours); format: cell-based; conditions: Homo sapiens; OVCAR-3 cells
Summary of the method: (§3)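 Cells grown in RPMI-1640 with 10% FBS were seeded at 1×10^4/well (MV4-11), 5×10^3 (OVCAR-3) or 1×10^3 (A2780), then dosed 24 h later with compound at 0.0015 uM to 10 uM, DMSO <0.1%. Viability was read by CellTiter-Glo luminescence after 72 h at 37° C, in duplicate.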

CDK2/Cyclin A = biological target: T4, CDK2/Cyclin A (Homo sapiens, UniProt P24941); assay: Enzymatic assay for CDK2 (LANCE Ultra kinase assay, FRET based); format: biochemical; conditions: ATP at Km
T4 construct: purchased Invitrogen PV6290
Summary of the method: as §2

A2780 = A2780 viability assay (CellTiter-Glo, 72 hours); format: cell-based; conditions: Homo sapiens; A2780 cells
Summary of the method: as §3

MV4-11 = assay: Cellular MV4-11 viability assay (CellTiter-Glo, 72 hours); format: cell-based; conditions: Homo sapiens; MV4-11 cells
Experimental: Human […] cell line, MV4-11_(ATCC, Cat #CRL-9591), NSCLC (Non-small cell lung cancer) cell line H460 (ATCC, Cat #HTB-177), A2780 (ECACC, Cat #93112519) and OVCAR-3(ATCC, Cat #HTB-161) were obtained from ATCC. Cells were grown in RPMI-1640 media (Invitrogen, Cat #22400-089) supplemented with 10% FBS (Invitrogen, Cat #10099141) and 1% penicillin/streptomycin (Invitrogen, Cat #15070063) and cultured at 37° C., 5% CO2 in a humidified chamber. All cell lines were routinely tested for mycoplasma.
To effect of the CDK7 inhibitor to inhibit the growth of target cancer cells, viability assay were conducted a 72 hour time period. Briefly, the candidate cell line was plated in 96 well plate at the following density of cells respectively. 1×10^4 cells/well for MV4-11, 5×10^3 for H460 and OVCAR-3, and 1×10^3 for A2780. After 24 hours, the cells were treated with various concentrations of the compound (ranging from 0.0015 uM to 10 uM). DMSO solvent without compound served as a control and final DMSO concentration lest than 0.1%. After 72 hours of incubation at 37° C., 5% CO2 incubator, cells were analyzed for the viability using the CellTiter-Glo Luminescent Cell Viability Assay (Promega, Cat #G7570). All viability assays were performed in duplicate and Luminescence was read using an Envision (Perkin Elmer, USA). Data was analyzed using XLfit software.

T1 sequence (P06493 whole entry): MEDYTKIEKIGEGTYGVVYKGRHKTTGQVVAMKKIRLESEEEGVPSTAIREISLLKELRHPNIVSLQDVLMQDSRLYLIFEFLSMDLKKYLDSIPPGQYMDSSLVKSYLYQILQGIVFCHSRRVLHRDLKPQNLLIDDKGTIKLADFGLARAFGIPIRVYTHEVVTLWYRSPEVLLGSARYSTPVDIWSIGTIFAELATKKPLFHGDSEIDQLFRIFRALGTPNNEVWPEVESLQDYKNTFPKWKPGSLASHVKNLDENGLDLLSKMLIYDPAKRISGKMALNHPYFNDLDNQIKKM
T1 sequence (P14635 whole entry partner): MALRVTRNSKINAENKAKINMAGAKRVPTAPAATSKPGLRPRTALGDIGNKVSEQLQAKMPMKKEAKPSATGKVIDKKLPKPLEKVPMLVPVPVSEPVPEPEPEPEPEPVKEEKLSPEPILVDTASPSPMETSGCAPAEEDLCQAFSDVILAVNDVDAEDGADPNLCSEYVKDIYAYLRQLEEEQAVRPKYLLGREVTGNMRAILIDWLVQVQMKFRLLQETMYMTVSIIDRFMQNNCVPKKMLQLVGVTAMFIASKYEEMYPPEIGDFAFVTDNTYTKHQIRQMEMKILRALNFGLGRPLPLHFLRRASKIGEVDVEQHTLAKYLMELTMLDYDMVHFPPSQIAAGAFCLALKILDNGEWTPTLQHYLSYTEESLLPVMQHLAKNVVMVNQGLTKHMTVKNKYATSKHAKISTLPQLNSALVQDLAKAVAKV

## CC(C)c1cnn2c(NCc3ccccc3-c3nccc4cc(NC(=O)/C=C/CN(C)C)ccc34)nc(-n3ccc(CO)n3)nc12 [Compound 41]
CDK1/Cyclin B
  IC50: > 1000 nM
CDK7/Cyclin H/MNAT1
  IC50: < 100 nM
  CDK1/CDK7: Selectivity of CDK7 inhibition over CDK1 inhibition: B (B indicates 50 < [fold] ≤ 500)
  CDK2/CDK7: Selectivity of CDK7 inhibition over CDK2 inhibition: B (B indicates 50 < [fold] ≤ 500)
  CDK5/CDK7: Selectivity of CDK7 inhibition over CDK5 inhibition: B (B indicates 50 < [fold] ≤ 500)
CDK5/p25
  IC50: > 1000 nM
OVCAR-3
  IC50: < 1000 nM
CDK2/Cyclin A
  IC50: > 1000 nM
A2780
  IC50: < 1000 nM
MV4-11
  IC50: < 1000 nM

## CC(C)c1cnn2c(NCc3ccccc3-c3nccc4cc(NC(=O)/C=C/CN(C)C)ccc34)nc(N3CCOCC3)nc12 [Compound 42]
CDK1/Cyclin B
  IC50: > 1000 nM
CDK7/Cyclin H/MNAT1
  IC50: 100 to 1000 nM
  CDK1/CDK7: Selectivity of CDK7 inhibition over CDK1 inhibition: B (B indicates 50 < [fold] ≤ 500)
  CDK2/CDK7: Selectivity of CDK7 inhibition over CDK2 inhibition: B (B indicates 50 < [fold] ≤ 500)
  CDK5/CDK7: Selectivity of CDK7 inhibition over CDK5 inhibition: B (B indicates 50 < [fold] ≤ 500)
CDK5/p25
  IC50: > 1000 nM
OVCAR-3
  IC50: < 1000 nM
CDK2/Cyclin A
  IC50: > 1000 nM
A2780
  IC50: < 1000 nM
MV4-11
  IC50: < 1000 nM

## CC(C)c1cnn2c(NCc3ccccc3-c3nccc4cc(NC(=O)/C=C/CN(C)C)ccc34)nc(NCC3CCOCC3)nc12 [Compound 43]
CDK1/Cyclin B
  IC50: > 1000 nM
CDK7/Cyclin H/MNAT1
  IC50: 100 to 1000 nM
  CDK1/CDK7: Selectivity of CDK7 inhibition over CDK1 inhibition: B (B indicates 50 < [fold] ≤ 500)
  CDK2/CDK7: Selectivity of CDK7 inhibition over CDK2 inhibition: B (B indicates 50 < [fold] ≤ 500)
  CDK5/CDK7: Selectivity of CDK7 inhibition over CDK5 inhibition: B (B indicates 50 < [fold] ≤ 500)
CDK5/p25
  IC50: > 1000 nM
OVCAR-3
  IC50: < 1000 nM
CDK2/Cyclin A
  IC50: > 1000 nM
A2780
  IC50: < 1000 nM
MV4-11
  IC50: < 1000 nM

## COC1CCC(Nc2nc(NCc3ccccc3-c3nccc4cc(NC(=O)/C=C/CN(C)C)ccc34)n3ncc(C(C)C)c3n2)CC1 (centres unmarked) [Compound 44]
CDK1/Cyclin B
  IC50: > 1000 nM
CDK7/Cyclin H/MNAT1
  IC50: < 100 nM
  CDK1/CDK7: Selectivity of CDK7 inhibition over CDK1 inhibition: A (A indicates [fold] > 500)
  CDK2/CDK7: Selectivity of CDK7 inhibition over CDK2 inhibition: A (A indicates [fold] > 500)
  CDK5/CDK7: Selectivity of CDK7 inhibition over CDK5 inhibition: A (A indicates [fold] > 500)
CDK5/p25
  IC50: > 1000 nM
OVCAR-3
  IC50: < 1000 nM
CDK2/Cyclin A
  IC50: > 1000 nM
A2780
  IC50: < 1000 nM
MV4-11
  IC50: < 1000 nM

## CC(C)c1cnn2c(NCc3ccccc3-c3nccc4cc(NC(=O)/C=C/CN(C)C)ccc34)nc(NCC3CCNCC3)nc12 [Compound 45]
CDK1/Cyclin B
  IC50: > 1000 nM
CDK7/Cyclin H/MNAT1
  IC50: < 100 nM
  CDK1/CDK7: Selectivity of CDK7 inhibition over CDK1 inhibition: A (A indicates [fold] > 500)
  CDK2/CDK7: Selectivity of CDK7 inhibition over CDK2 inhibition: A (A indicates [fold] > 500)
  CDK5/CDK7: Selectivity of CDK7 inhibition over CDK5 inhibition: A (A indicates [fold] > 500)
CDK5/p25
  IC50: > 1000 nM
OVCAR-3
  IC50: < 1000 nM
CDK2/Cyclin A
  IC50: > 1000 nM
A2780
  IC50: < 1000 nM
MV4-11
  IC50: < 1000 nM

## C=CC(=O)Nc1ccc2c(-c3ccccc3CNc3nc(N4CCC(N)CC4)nc4c(C(C)C)cnn34)nccc2c1 [Compound 46]
CDK1/Cyclin B
  IC50: > 1000 nM
CDK7/Cyclin H/MNAT1
  IC50: < 100 nM
  CDK1/CDK7: Selectivity of CDK7 inhibition over CDK1 inhibition: A (A indicates [fold] > 500)
  CDK2/CDK7: Selectivity of CDK7 inhibition over CDK2 inhibition: A (A indicates [fold] > 500)
  CDK5/CDK7: Selectivity of CDK7 inhibition over CDK5 inhibition: A (A indicates [fold] > 500)
CDK5/p25
  IC50: > 1000 nM
OVCAR-3
  IC50: < 1000 nM
CDK2/Cyclin A
  IC50: > 1000 nM
A2780
  IC50: < 1000 nM
MV4-11
  IC50: < 1000 nM

## CC#CC(=O)Nc1ccc2c(-c3ccccc3CNc3nc(N4CCC(N)CC4)nc4c(C(C)C)cnn34)nccc2c1 [Compound 47]
CDK1/Cyclin B
  IC50: > 1000 nM
CDK7/Cyclin H/MNAT1
  IC50: < 100 nM
  CDK1/CDK7: Selectivity of CDK7 inhibition over CDK1 inhibition: A (A indicates [fold] > 500)
  CDK2/CDK7: Selectivity of CDK7 inhibition over CDK2 inhibition: A (A indicates [fold] > 500)
  CDK5/CDK7: Selectivity of CDK7 inhibition over CDK5 inhibition: B (B indicates 50 < [fold] ≤ 500)
CDK5/p25
  IC50: > 1000 nM
OVCAR-3
  IC50: < 1000 nM
CDK2/Cyclin A
  IC50: > 1000 nM
A2780
  IC50: < 1000 nM
MV4-11
  IC50: < 1000 nM

## C=C(C)C(=O)Nc1ccc2c(-c3ccccc3CNc3nc(N4CCC(N)CC4)nc4c(C(C)C)cnn34)nccc2c1 [Compound 48]
CDK1/Cyclin B
  IC50: > 1000 nM
CDK7/Cyclin H/MNAT1
  IC50: < 100 nM
  CDK1/CDK7: Selectivity of CDK7 inhibition over CDK1 inhibition: A (A indicates [fold] > 500)
  CDK2/CDK7: Selectivity of CDK7 inhibition over CDK2 inhibition: A (A indicates [fold] > 500)
  CDK5/CDK7: Selectivity of CDK7 inhibition over CDK5 inhibition: A (A indicates [fold] > 500)
CDK5/p25
  IC50: > 1000 nM
OVCAR-3
  IC50: < 1000 nM
CDK2/Cyclin A
  IC50: > 1000 nM
A2780
  IC50: < 1000 nM
MV4-11
  IC50: < 1000 nM

## CC(C)c1cnn2c(NCc3ccccc3-c3nccc4cc(NC(=O)C5(C#N)CC5)ccc34)nc(N3CCC(N)CC3)nc12 [Compound 49]
CDK1/Cyclin B
  IC50: > 1000 nM
CDK7/Cyclin H/MNAT1
  IC50: < 100 nM
  CDK1/CDK7: Selectivity of CDK7 inhibition over CDK1 inhibition: A (A indicates [fold] > 500)
  CDK2/CDK7: Selectivity of CDK7 inhibition over CDK2 inhibition: A (A indicates [fold] > 500)
  CDK5/CDK7: Selectivity of CDK7 inhibition over CDK5 inhibition: A (A indicates [fold] > 500)
CDK5/p25
  IC50: > 1000 nM
OVCAR-3
  IC50: < 1000 nM
CDK2/Cyclin A
  IC50: > 1000 nM
A2780
  IC50: < 1000 nM
MV4-11
  IC50: < 1000 nM

## C/C=C/C(=O)Nc1ccc2c(-c3ccccc3CNc3nc(N4CCC(N)CC4)nc4c(C(C)C)cnn34)nccc2c1 [Compound 50]
CDK1/Cyclin B
  IC50: > 1000 nM
CDK7/Cyclin H/MNAT1
  IC50: < 100 nM
  CDK1/CDK7: Selectivity of CDK7 inhibition over CDK1 inhibition: A (A indicates [fold] > 500)
  CDK2/CDK7: Selectivity of CDK7 inhibition over CDK2 inhibition: A (A indicates [fold] > 500)
  CDK5/CDK7: Selectivity of CDK7 inhibition over CDK5 inhibition: A (A indicates [fold] > 500)
CDK5/p25
  IC50: > 1000 nM
OVCAR-3
  IC50: < 1000 nM
CDK2/Cyclin A
  IC50: > 1000 nM
A2780
  IC50: < 1000 nM
MV4-11
  IC50: < 1000 nM

## CC(C)c1cnn2c(NCc3ccccc3-c3nccc4cc(NC(=O)/C=C/CN5CCCCC5)ccc34)nc(N3CCC(N)CC3)nc12 [Compound 52]
CDK1/Cyclin B
  IC50: > 1000 nM
CDK7/Cyclin H/MNAT1
  IC50: < 100 nM
  CDK1/CDK7: Selectivity of CDK7 inhibition over CDK1 inhibition: A (A indicates [fold] > 500)
  CDK2/CDK7: Selectivity of CDK7 inhibition over CDK2 inhibition: A (A indicates [fold] > 500)
  CDK5/CDK7: Selectivity of CDK7 inhibition over CDK5 inhibition: A (A indicates [fold] > 500)
CDK5/p25
  IC50: > 1000 nM
OVCAR-3
  IC50: < 1000 nM
CDK2/Cyclin A
  IC50: > 1000 nM
A2780
  IC50: < 1000 nM
MV4-11
  IC50: < 1000 nM
